Measurements from patent publication US20090053721A1, “VOLTAGE-GATED ION CHANNEL MUTANTS FOR USE IN IDENTIFYING ION CHANNEL MODULATING COMPOUNDS” (CARDIOME PHARMA CORP., priority 2007, published 2009).
Counter-ions that a name gives are not always drawn.

What was measured:
Assay in all cases: Whole-cell patch-clamp block of mutant Kv1.5 current in HEK293 cells
Type in all cases: cell-based
[1] = target: T1, Kv1.5 A501V mutant channel (Homo sapiens, UniProt P22460, A501V)
T1 construct: subcloned as a fragment back into full-length Kv1.5; expressed in transfected cells; host or cells: HEK293, transient transfection
Procedure: (§1) Stable lines of HEK293 cells expressing Kv1.5, or transient transfection of mutant Kv1.5 channels were used in all experiments. […] (Coralville, Iowa, USA), and mutants were generated using the Stratagene Quikchange kit (Stratagene, Calif., USA). […] This was added to the cells for overnight incubation after washing the media with 900 μl of MEM with 10% FBS. […] Media contained 10% bovine serum and 0.5 mg/ml geneticin for stable lines. On the day before recording, stably-expressing cells were washed with MEM, treated with trypsin/EGTA for one minute and plated on 25 mm^2 coverslips. All cell culture supplies were obtained from Invitrogen (Mississauga, ON, Canada). Control bath solution contained (in mM): 5 KCl, 135 NaCl, 2.8 sodium acetate, 1 MgCl2, 10 HEPES and 1 CaCl2, adjusted to pH 7.4 with NaOH. Patch pipettes contained (in mM): 130 KCl, 5 EGTA, 1 MgCl2, 10 HEPES, 4 Na2ATP, and 0.1 GTP, adjusted to pH 7.2 with KOH. All chemicals used to make solutions were obtained from Sigma-Aldrich (Mississauga, ON, Canada). […] (Vancouver, BC, Canada) and prepared as a stock solution (50 mM) in H2O. […] DMSO concentrations for either drug never exceeded 0.1% v/v in the final experimental solutions. Coverslips with adherent cells plated on the surface were placed in a superfusion chamber (volume 300 μl) containing the control bath solution at 22° C. Whole-cell current recording and analysis were carried out using an Axopatch 200B amplifier and pClamp10 software (Axon Instruments, CA, USA). Patch electrodes were pulled from thin-walled borosilicate glass (World Precision Instruments, FL, USA) on a horizontal micropipette puller (Sutter Instruments, CA, USA). […] Analogue capacity compensation and 80% series resistance compensation were used during whole cell measurements. Membrane potentials were not corrected for junction potentials that arise between the pipette and bath solution. […] Data were sampled at 10-20 kHz and filtered at 5 to 10 kHz. […] Data are represented as mean±SE unless otherwise specified. For significance of differences, * represents p<0.05, ** p<0.01; statistical analysis was conducted using Student's t-test (unpaired). Clampfit software (Axon Instruments, CA, USA) was used to analyze current traces. Data from each test pulse (currents in the presence of drug) were normalized to control test pulse currents obtained before drug exposure. […] IC50 is the concentration producing half-maximal inhibition; and n is the Hill coefficient.

[2] = target: T2, Kv1.5 C500A mutant channel (Homo sapiens, UniProt P22460, C500A)
T2 construct: subcloned as a fragment back into full-length Kv1.5; expressed in transfected cells; host or cells: HEK293, transient transfection
Procedure: as §1

[3] = target: T3, Kv1.5 I508L mutant channel (Homo sapiens, UniProt P22460, I508L)
T3 construct: subcloned as a fragment back into full-length Kv1.5; expressed in transfected cells; host or cells: HEK293, transient transfection
Procedure: as §1

[4] = target: T4, Kv1.5 P532L mutant channel (Homo sapiens, UniProt P22460, P532L)
T4 construct: subcloned as a fragment back into full-length Kv1.5; expressed in transfected cells; host or cells: HEK293, transient transfection
Procedure: as §1

[5] = target: T5, Kv1.5 T479S mutant channel (Homo sapiens, UniProt P22460, T479S)
T5 construct: subcloned as a fragment back into full-length Kv1.5; expressed in transfected cells; host or cells: HEK293, transient transfection
Procedure: as §1

[6] = target: T6, Kv1.5 T480A mutant channel (Homo sapiens, UniProt P22460, T480A)
T6 construct: subcloned as a fragment back into full-length Kv1.5; expressed in transfected cells; host or cells: HEK293, transient transfection
Procedure: as §1

[7] = target: T7, Kv1.5 T480S mutant channel (Homo sapiens, UniProt P22460, T480S)
T7 construct: subcloned as a fragment back into full-length Kv1.5; expressed in transfected cells; host or cells: HEK293, transient transfection
Procedure: as §1

T7 sequence (P22460 whole entry T480S, the tested form may be a part): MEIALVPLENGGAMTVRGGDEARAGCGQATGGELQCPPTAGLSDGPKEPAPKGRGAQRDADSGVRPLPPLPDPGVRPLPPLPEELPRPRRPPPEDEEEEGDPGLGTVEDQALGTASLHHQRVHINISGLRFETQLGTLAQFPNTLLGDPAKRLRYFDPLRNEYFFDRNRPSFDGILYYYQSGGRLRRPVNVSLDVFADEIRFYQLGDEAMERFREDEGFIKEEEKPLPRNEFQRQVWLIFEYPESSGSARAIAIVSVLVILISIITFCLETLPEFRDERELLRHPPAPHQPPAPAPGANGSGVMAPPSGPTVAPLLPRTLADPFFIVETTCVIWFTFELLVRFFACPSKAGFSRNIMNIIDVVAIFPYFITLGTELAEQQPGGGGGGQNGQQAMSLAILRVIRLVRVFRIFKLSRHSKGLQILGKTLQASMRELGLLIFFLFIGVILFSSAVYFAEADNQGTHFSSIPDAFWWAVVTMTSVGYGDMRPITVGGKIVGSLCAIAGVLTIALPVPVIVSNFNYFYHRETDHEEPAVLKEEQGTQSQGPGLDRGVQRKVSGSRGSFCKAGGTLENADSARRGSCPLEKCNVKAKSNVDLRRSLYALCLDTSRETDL
T1 sequence (P22460 whole entry A501V, the tested form may be a part): as the sequence (P22460 whole entry T480S, the tested form may be a part) above, with S480T, A501V counted along it
T6 sequence (P22460 whole entry T480A, the tested form may be a part): as the sequence (P22460 whole entry T480S, the tested form may be a part) above, with S480A counted along it
T5 sequence (P22460 whole entry T479S, the tested form may be a part): as the sequence (P22460 whole entry T480S, the tested form may be a part) above, with T479S, S480T counted along it
T4 sequence (P22460 whole entry P532L, the tested form may be a part): as the sequence (P22460 whole entry T480S, the tested form may be a part) above, with S480T, P532L counted along it
T2 sequence (P22460 whole entry C500A, the tested form may be a part): as the sequence (P22460 whole entry T480S, the tested form may be a part) above, with S480T, C500A counted along it
T3 sequence (P22460 whole entry I508L, the tested form may be a part): as the sequence (P22460 whole entry T480S, the tested form may be a part) above, with S480T, I508L counted along it

COc1ccc(CCO[C@@H]2CCCC[C@H]2N2CC[C@@H](O)C2)cc1OC [Vernakalant, 3-Pyrrolidinol, 1-[(1R,2R)-2-[2-(3,4-dimethoxyphenyl)ethoxy]cyclohexyl]-,hydrochloride, (3R)]
Hill coefficient [1]: 0.85
Fractional Block ± SEM ([1]; 10 μM vernakalant): 0.69 ± 0.04
Hill coefficient [2]: 0.95
Fractional Block ± SEM ([2]; 10 μM vernakalant): 0.21 ± 0.04
Hill coefficient [3]: 1.00
Fractional Block ± SEM ([3]; 10 μM vernakalant): 0.38 ± 0.05
Hill coefficient [4]: 0.96
Fractional Block ± SEM ([4]; 10 μM vernakalant): 0.26 ± 0.03
Hill coefficient [5]: 0.95
Fractional Block ± SEM ([5]; 10 μM vernakalant): 0.23 ± 0.04
Hill coefficient [6]: 0.88
Fractional Block ± SEM ([6]; 10 μM vernakalant): 0.23 ± 0.04
Hill coefficient [7]: 0.64
Fractional Block ± SEM ([7]; 10 μM vernakalant): 0.25 ± 0.07
